Calls of active or inactive are those of the source. The calls are words filed in the database; no cut-off is given here.

The test system of one experiment is HL-60. In words: Antiproliferative activity against human HL60 cells at 30 uM after 48 hrs by MTS assay. The class given is functional, cell-based.
Experiment [1] addresses T1, Lactoylglutathione lyase (Homo sapiens, UniProt Q04760). The experiment in a line: Inhibition of human recombinant His-tagged Glyoxalase 1 expressed in Sf21-Baculovirus system.
Target sequence in this assay (Q04760 whole entry): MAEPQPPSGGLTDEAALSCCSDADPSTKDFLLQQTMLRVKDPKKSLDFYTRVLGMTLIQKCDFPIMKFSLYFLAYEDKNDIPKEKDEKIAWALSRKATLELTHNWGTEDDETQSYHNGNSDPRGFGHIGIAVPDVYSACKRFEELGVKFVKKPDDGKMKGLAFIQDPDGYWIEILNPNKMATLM
For experiment [2], the target named is T1, Lactoylglutathione lyase. In words: Inhibition of human recombinant His-tagged Glyoxalase 1 expressed in Sf21-Baculovirus system at 100 uM.
Target sequence in this assay (Q04760 2-184 limits assumed): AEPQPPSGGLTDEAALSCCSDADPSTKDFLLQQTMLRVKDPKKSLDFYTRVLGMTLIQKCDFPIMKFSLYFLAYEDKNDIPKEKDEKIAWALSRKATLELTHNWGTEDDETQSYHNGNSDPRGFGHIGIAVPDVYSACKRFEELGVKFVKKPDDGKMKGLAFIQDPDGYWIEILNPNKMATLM

As for `O=c1c(O[C@@H]2O[C@H](CO)[C@H](O)[C@H](O)[C@H]2O)c(-c2ccc(O)c(O)c2)oc2cc(O)cc(O)c12`, the outcome in the experiment with HL-60 was Active. `O=c1c(O)c(-c2ccc(O)cc2)oc2cc(O)cc(O)c12` [KAEMPFEROL]: the IC50 at Lactoylglutathione lyase [1] was found to be 20.6 µM. Besides, the inhibition on Lactoylglutathione lyase [2] came out at 60%. Further, in the experiment with HL-60, the result was Active. Regarding `O=c1c(O)c(-c2cc(O)c(O)c(O)c2)oc2cc(O)cc(O)c12`, in the experiment with HL-60, the outcome was Active. For the compound `O=C(O)[C@H]1O[C@@H](Oc2cc3oc(-c4ccccc4)cc(=O)c3c(O)c2O)[C@H](O)[C@@H](O)[C@@H]1O`, the outcome in the experiment on HL-60 was Active. On the same count and under the same terms, with `COc1c(O[C@H]2O[C@H](C(=O)O)[C@@H](O)[C@H](O)[C@H]2O)cc2oc(-c3ccccc3)cc(=O)c2c1O` the entry was “Active”. Take `O=C1C[C@@H](c2ccc(O)cc2)Oc2cc(O)cc(O)c21`: the inhibition at Lactoylglutathione lyase [2] was found to be 50%. In addition, in the experiment with HL-60, the outcome was Active. Take `O=c1cc(-c2ccc(O)c(O)c2)oc2cc(O)cc(O)c12` [LUTEOLIN]: the IC50 at Lactoylglutathione lyase [1] is 7.7 µM. Also, the outcome in the experiment on HL-60 was Active.

Turning to `N[C@@H](CCC(=O)N[C@@H](CSCc1ccc(Br)cc1)C(=O)NCC(=O)OC1CCCC1)C(=O)OC1CCCC1`, the outcome in the experiment on HL-60 was Active. With `O=c1cc(-c2ccccc2)oc2cc(O)c(O)c(O)c12` [BAICALEIN], the IC50 at Lactoylglutathione lyase [1] worked out at 11 µM. The outcome in the experiment on HL-60 was Active. In the case of `O=c1c(O)c(-c2ccc(O)c(O)c2)oc2cc(O)cc(O)c12`, the result with HL-60 was Active.

As a reminder, the IC50 is the concentration that gives 50% inhibition. Usually inhibition stands for the change of the read-out against control, counted positive when it falls.

Source of the values: ChEMBL document CHEMBL1157146, “Structure-activity relationship of human GLO I inhibitory natural flavonoids and their growth inhibitory effects” (Bioorg Med Chem, 2008).
